Test results from ChEMBL document CHEMBL3885881, “DrugMatrix”.

Species: Rattus norvegicus
Assay: DrugMatrix - Regimen: Daily Repeat
Format: toxicity, organism-based, Sprague-Dawley
Parameters: regimen Daily Repeat, gender Male, age 6-8 weeks
Conditions: in vivo, po, route oral GAVAGE, vehicle .5 % CMC; for ABSOLUTE BASOPHIL / ABSOLUTE EOSINOPHIL / ABSOLUTE LYMPHOCYTE / ABSOLUTE MONOCYTE / ABSOLUTE SEGMENTED NEUTROPHIL / BASOPHIL / EOSINOPHIL / ERYTHROCYTE COUNT / HEMATOCRIT / HEMOGLOBIN / LEUKOCYTE COUNT / LYMPHOCYTE / MEAN CORPUSCULAR HEMOGLOBIN / MEAN CORPUSCULAR HEMOGLOBIN CONCENTRATION / MEAN CORPUSCULAR VOLUME / MONOCYTE / NEUTROPHIL / NUCLEATED RED BLOOD CELLS / PLATELET COUNT: tissue Blood; for ALANINE AMINOTRANSFERASE / ALBUMIN / ALKALINE PHOSPHATASE / ASPARTATE AMINOTRANSFERASE / BLOOD UREA NITROGEN / CARBON DIOXIDE / CHLORIDE / CHOLESTEROL / CREATINE PHOSPHOKINASE / CREATININE / GLUCOSE / LACTATE DEHYDROGENASE / LIPASE / PHOSPHORUS / POTASSIUM / SODIUM / TOTAL BILIRUBIN / TOTAL PROTEIN / URIC ACID: tissue Plasma
[1] = 47 mg/kg, 120 h, dose level High, time 5 day
[2] = […], 72 h, dose 3.6 mg/Kg, dose level Low, time 3 day
[3] = […], 120 h, dose 3.6 mg/Kg, dose level Low, time 5 day

SMILES: CN(C)C(=O)C(CCN1CCC(O)(c2ccc(Cl)cc2)CC1)(c1ccccc1)c1ccccc1 [LOPERAMIDE]
- ABSOLUTE BASOPHIL [1]: 0 CELLS/uL
- ABSOLUTE EOSINOPHIL [1]: 31.33 CELLS/uL
- ABSOLUTE LYMPHOCYTE [1]: 6903.67 CELLS/uL
- ABSOLUTE MONOCYTE [1]: 106 CELLS/uL
- ABSOLUTE SEGMENTED NEUTROPHIL [1]: 859 CELLS/uL
- BASOPHIL [1]: 0%
- EOSINOPHIL [1]: 0.33%
- ERYTHROCYTE COUNT [1]: 5.64 x10E6/uL
- HEMATOCRIT [1]: 35.1%
- HEMOGLOBIN [1]: 14.03 G/DL
- LEUKOCYTE COUNT [1]: 7.9 x10E3/uL
- LYMPHOCYTE [1]: 87.67%
- MEAN CORPUSCULAR HEMOGLOBIN [1]: 24.93 pg
- MEAN CORPUSCULAR HEMOGLOBIN CONCENTRATION [1]: 40 G/DL
- MEAN CORPUSCULAR VOLUME [1]: 62.3 fL
- MONOCYTE [1]: 1.33%
- NEUTROPHIL [1]: 10.67%
- NUCLEATED RED BLOOD CELLS [1]: 0 /100WBC
- PLATELET COUNT [1]: 1406.33 x10E3/uL
- ALANINE AMINOTRANSFERASE [1]: 93.33 u/L
- ALBUMIN [1]: 4.4 G/DL
- ALKALINE PHOSPHATASE [1]: 365.33 u/L
- ASPARTATE AMINOTRANSFERASE [1]: 91 u/L
- BLOOD UREA NITROGEN [1]: 16 mg/dL
- CARBON DIOXIDE [1]: 30.67 mmol/L
- CHLORIDE [1]: 100.67 MEQ/L
- CHOLESTEROL [1]: 58 mg/dL
- CREATINE PHOSPHOKINASE [1]: 208.67 u/L
- CREATININE [1]: 0.14 mg/dL
- GLUCOSE [1]: 162.67 mg/dL
- LACTATE DEHYDROGENASE [1]: 118.33 u/L
- LIPASE [1]: 7.67 u/L
- PHOSPHORUS [1]: 10.77 mg/dL
- POTASSIUM [1]: 4.92 MEQ/L
- SODIUM [1]: 146.5 MEQ/L
- TOTAL BILIRUBIN [1]: 0.17 mg/dL
- TOTAL PROTEIN [1]: 6.07 G/DL
- URIC ACID [1]: 0.83 mg/dL
- ABSOLUTE BASOPHIL [2]: 0 CELLS/uL
- ABSOLUTE EOSINOPHIL [2]: 192.67 CELLS/uL
- ABSOLUTE LYMPHOCYTE [2]: 13020.33 CELLS/uL
- ABSOLUTE MONOCYTE [2]: 102.67 CELLS/uL
- ABSOLUTE SEGMENTED NEUTROPHIL [2]: 1651 CELLS/uL
- BASOPHIL [2]: 0%
- EOSINOPHIL [2]: 1.33%
- ERYTHROCYTE COUNT [2]: 5.19 x10E6/uL
- HEMATOCRIT [2]: 33.57%
- HEMOGLOBIN [2]: 13.8 G/DL
- LEUKOCYTE COUNT [2]: 14.97 x10E3/uL
- LYMPHOCYTE [2]: 87%
- MEAN CORPUSCULAR HEMOGLOBIN [2]: 26.63 pg
- MEAN CORPUSCULAR HEMOGLOBIN CONCENTRATION [2]: 41.1 G/DL
- MEAN CORPUSCULAR VOLUME [2]: 64.7 fL
- MONOCYTE [2]: 0.67%
- NEUTROPHIL [2]: 11%
- NUCLEATED RED BLOOD CELLS [2]: 0 /100WBC
- PLATELET COUNT [2]: 1302 x10E3/uL
- ALANINE AMINOTRANSFERASE [2]: 64.33 u/L
- ALBUMIN [2]: 4.2 G/DL
- ALKALINE PHOSPHATASE [2]: 426 u/L
- ASPARTATE AMINOTRANSFERASE [2]: 86 u/L
- BLOOD UREA NITROGEN [2]: 16 mg/dL
- CARBON DIOXIDE [2]: 27 mmol/L
- CHLORIDE [2]: 102 MEQ/L
- CHOLESTEROL [2]: 83.33 mg/dL
- CREATINE PHOSPHOKINASE [2]: 331 u/L
- CREATININE [2]: 0.14 mg/dL
- GLUCOSE [2]: 168 mg/dL
- LACTATE DEHYDROGENASE [2]: 198.33 u/L
- LIPASE [2]: 10 u/L
- PHOSPHORUS [2]: 11.93 mg/dL
- POTASSIUM [2]: 5.72 MEQ/L
- SODIUM [2]: 142.8 MEQ/L
- TOTAL BILIRUBIN [2]: 0.13 mg/dL
- TOTAL PROTEIN [2]: 5.63 G/DL
- URIC ACID [2]: 1.23 mg/dL
- ABSOLUTE BASOPHIL [3]: 0 CELLS/uL
- ABSOLUTE EOSINOPHIL [3]: 0 CELLS/uL
- ABSOLUTE LYMPHOCYTE [3]: 11205 CELLS/uL
- ABSOLUTE MONOCYTE [3]: 32.67 CELLS/uL
- ABSOLUTE SEGMENTED NEUTROPHIL [3]: 1129 CELLS/uL
- BASOPHIL [3]: 0%
- EOSINOPHIL [3]: 0%
- ERYTHROCYTE COUNT [3]: 5.52 x10E6/uL
- HEMATOCRIT [3]: 35.23%
- HEMOGLOBIN [3]: 14.13 G/DL
- LEUKOCYTE COUNT [3]: 12.37 x10E3/uL
- LYMPHOCYTE [3]: 91%
- MEAN CORPUSCULAR HEMOGLOBIN [3]: 25.63 pg
- MEAN CORPUSCULAR HEMOGLOBIN CONCENTRATION [3]: 40.13 G/DL
- MEAN CORPUSCULAR VOLUME [3]: 63.87 fL
- MONOCYTE [3]: 0.33%
- NEUTROPHIL [3]: 8.67%
- NUCLEATED RED BLOOD CELLS [3]: 0 /100WBC
- PLATELET COUNT [3]: 1068 x10E3/uL
- ALANINE AMINOTRANSFERASE [3]: 58.33 u/L
- ALBUMIN [3]: 4.3 G/DL
- ALKALINE PHOSPHATASE [3]: 376 u/L
- ASPARTATE AMINOTRANSFERASE [3]: 86.67 u/L
- BLOOD UREA NITROGEN [3]: 13.67 mg/dL
- CARBON DIOXIDE [3]: 33 mmol/L
- CHLORIDE [3]: 101.67 MEQ/L
- CHOLESTEROL [3]: 67.67 mg/dL
- CREATINE PHOSPHOKINASE [3]: 233.67 u/L
- CREATININE [3]: 0.2 mg/dL
- GLUCOSE [3]: 140.33 mg/dL
- LACTATE DEHYDROGENASE [3]: 157.33 u/L
- LIPASE [3]: 9.67 u/L
- PHOSPHORUS [3]: 12.57 mg/dL
- POTASSIUM [3]: 6.47 MEQ/L
- SODIUM [3]: 145.27 MEQ/L
- TOTAL BILIRUBIN [3]: 0.2 mg/dL
- TOTAL PROTEIN [3]: 6.07 G/DL
- URIC ACID [3]: 1.23 mg/dL
